Laboratory results: the supplement of paper PMC11208160

assay: recombinant barcode read abundance after kanamycin selection (control-corrected) (log10(CPM+1)); higher = more efficient recombination; sequences stand for … in AGTGCAGAGAAAATCGGCCAGTTTTCTCTGCCTGCAGTCCGCATGCCGT…AGATTTATGCAGCGGACTGCCTTTCTCCCAAAGTGATAAACCGGACAGTATCATGGACCGGTTTTCCCGGTAATCCGTATTTGCAAGGTTGGTTTCACT; site = the 11-nt target
Procedure, shortened: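 Recombination efficiency comes from barcode counts at recombinant junctions, converted to counts per million, averaged and corrected against the control. Values appear as log10(CPM+1). They were obtained from a pooled E. coli screen in which each oligo paired a target with an IS621 bridge RNA target-binding loop, and cells were plated in duplicate on chloramphenicol/ampicillin LB agar or on chloramphenicol/ampicillin/kanamycin with 0.1 mM IPTG.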
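Also: IS621 recombinase and bridge RNA in Escherichia coli cells.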

Row | Sequence | recombinant barcode read abundance (log10)
1 | ATGCTAACTTGGGTTCTAACCTGTTGCCT (site ATGCTAACTAG) | 1.62
2 | ATGCTAACTTGGGTTCTAACCTGTTGCCT (site GTGCTAACTTG) | 0.471
3 | ATGCTATCTTGGGTTCTAACCTGTTGCAG (site ATGCTATCTCT) | 0.678
4 | ATGCTATCTTGGGTTCTAACCTGTTGCAG (site CACGGTCCTTG) | 0.276
5 | ATGCTGTCTTGGGTTCTAACCTGTTGCTA (site ATGCTGTCTTA) | 1.52
6 | ATGCTGTCTTGGGTTCTAACCTGTTGCTA (site GACTACCCTAG) | 0.273
7 | ATGGCACCTTGGGTTCTAACCTGTTGCCT (site AGGGCACCTTG) | 0.035
8 | ATGGCACCTTGGGTTCTAACCTGTTGCCT (site ATGGCACCTAG) | 1.04
9 | ATGGCCTCTTGGGTTCTAACCTGTTGCTA (site ATGGCCTCTTA) | 2.5
10 | ATGGCCTCTTGGGTTCTAACCTGTTGCTA (site GCTTAAACTAG) | 0.0975
11 | ATGGGCCCTTGGGTTCTAACCTGTTGCTG (site ATGGGCCCTAA) | 0.13
12 | ATGGGCCCTTGGGTTCTAACCTGTTGCTG (site ATGGGCCCTCA) | 2.97
13 | ATGGGCCCTTGGGTTCTAACCTGTTGCTG (site ATGGGCCCTGA) | 0.127
14 | ATGGGCCCTTGGGTTCTAACCTGTTGCTG (site ATGGGCCCTTA) | 0.511
15 | ATGGGGTCTTGGGTTCTAACCTGTTGCTT (site AAGGGGTCTAA) | 0.223
16 | ATGGGGTCTTGGGTTCTAACCTGTTGCTT (site ATGGGGTCTAA) | 1.73
17 | ATGGGTCCTTGGGTTCTAACCTGTTGCCG (site ATAGGTCCTCA) | 0.536
18 | ATGGGTCCTTGGGTTCTAACCTGTTGCCG (site ATGGGTCCTCG) | 2.21
19 | ATGGTCACTTGGGTTCTAACCTGTTGCCT (site AAGGTCACTAG) | 0.354
20 | ATGGTCACTTGGGTTCTAACCTGTTGCCT (site ACGGTCACTAG) | 1.18

Row | Sequence | recombinant barcode read abundance (log10)
21 | ATGGTCACTTGGGTTCTAACCTGTTGCCT (site AGGGTCACTAG) | 0.0805
22 | ATGGTCACTTGGGTTCTAACCTGTTGCCT (site ATGGTCACTAG) | 2.54
23 | ATGGTGTCTTGGGTTCTAACCTGTTGCCT (site ATGGTGACTAG) | 0.109
24 | ATGGTGTCTTGGGTTCTAACCTGTTGCCT (site ATGGTGCCTAG) | 0.768
25 | ATGGTGTCTTGGGTTCTAACCTGTTGCCT (site ATGGTGGCTAG) | 0.0539
26 | ATGGTGTCTTGGGTTCTAACCTGTTGCCT (site ATGGTGTCTAG) | 2.75
27 | ATGTACACTTGGGTTCTAACCTGTTGCCT (site ATGGATACTAG) | 0.0684
28 | ATGTACACTTGGGTTCTAACCTGTTGCCT (site ATGTACACTAG) | 1.55
29 | ATGTAGTCTTGGGTTCTAACCTGTTGCCT (site ATGTAGTCTAG) | 1.89
30 | ATGTAGTCTTGGGTTCTAACCTGTTGCCT (site TTGTCGTCTAG) | 0.24
31 | ATGTCCTCTTGGGTTCTAACCTGTTGCCT (site ATGACCTCTAG) | 0.145
32 | ATGTCCTCTTGGGTTCTAACCTGTTGCCT (site ATGCCCTCTAG) | 0.872
33 | ATGTCCTCTTGGGTTCTAACCTGTTGCCT (site ATGGCCTCTAG) | 0.276
34 | ATGTCCTCTTGGGTTCTAACCTGTTGCCT (site ATGTCCTCTAG) | 1.5
35 | ATGTCTGCTTGGGTTCTAACCTGTTGCCT (site ATGTCTGCTAG) | 0.475
36 | ATGTCTGCTTGGGTTCTAACCTGTTGCCT (site GATGGACCTTA) | 0.0105
37 | ATGTGAACTTGGGTTCTAACCTGTTGCTG (site ATGTGAACTCA) | 1.02
38 | ATGTGAACTTGGGTTCTAACCTGTTGCTG (site GCAGCCTCTAC) | 0.0648
39 | ATGTGCTCTTGGGTTCTAACCTGTTGCCT (site AAGTGCTCTAG) | 0.204
40 | ATGTGCTCTTGGGTTCTAACCTGTTGCCT (site ACGTGCTCTAG) | 0.253

Row | Sequence | recombinant barcode read abundance (log10)
41 | ATGTGCTCTTGGGTTCTAACCTGTTGCCT (site AGGTGCTCTAG) | 0.22
42 | ATGTGCTCTTGGGTTCTAACCTGTTGCCT (site ATGTGCTCTAG) | 2.07
43 | ATGTTAGCTTGGGTTCTAACCTGTTGCCT (site ATGTAGGCTAG) | 0.208
44 | ATGTTAGCTTGGGTTCTAACCTGTTGCCT (site ATGTTAGCTAG) | 1.65
45 | ATTCGAGCTTGGGTTCTAACCTGTTGCAT (site ATTCGAGCTAT) | 1.18
46 | ATTCGAGCTTGGGTTCTAACCTGTTGCAT (site CGGGCGTCTTA) | 0.203
47 | ATTCGGCCTTGGGTTCTAACCTGTTGCCT (site AGTCGGCCTAG) | 0.038
48 | ATTCGGCCTTGGGTTCTAACCTGTTGCCT (site ATTCGGCCTAG) | 0.0683
49 | ATTGCTCCTTGGGTTCTAACCTGTTGCCT (site ATTGCTCCTAG) | 0.416
50 | ATTGCTCCTTGGGTTCTAACCTGTTGCCT (site ATTGGTCCTAT) | 0.126
51 | ATTGCTCCTTGGGTTCTAACCTGTTGCTT (site ATTGCTCCTAA) | 0.106
52 | ATTGCTCCTTGGGTTCTAACCTGTTGCTT (site GGTGCTCCTAA) | 0.722
53 | ATTGGTCCTTGGGTTCTAACCTGTTGCCT (site ATAGGTCCTAG) | 0.994
54 | ATTGGTCCTTGGGTTCTAACCTGTTGCCT (site ATCGGTCCTAG) | 0.27
55 | ATTGGTCCTTGGGTTCTAACCTGTTGCCT (site ATGGGTCCTAG) | 0.187
56 | ATTGGTCCTTGGGTTCTAACCTGTTGCCT (site ATTGGTCCTAG) | 1.66
57 | ATTGGTTCTTGGGTTCTAACCTGTTGCCT (site ATTGGATCTAG) | 0.114
58 | ATTGGTTCTTGGGTTCTAACCTGTTGCCT (site ATTGGCTCTAG) | 0.104
59 | ATTGGTTCTTGGGTTCTAACCTGTTGCCT (site ATTGGGTCTAG) | 0.0515
